Columns and labels:
Estrogen receptor beta = Estrogen receptor beta (Homo sapiens, UniProt Q92731)
Description: Binding affinity to human recombinant ERbeta by competitive fluorometric binding assay

MDA-MB-231 = assay: cells; conditions: Homo sapiens, MDA-MB-231, 24 h
Description: Antiproliferative activity against human MDA-MB-231 cells assessed as cell viability after 24 hrs by MTT assay

MCF7 = assay: cells; conditions: Homo sapiens, MCF7, 24 h
Description: Antiproliferative activity against human MCF7 cells assessed as cell viability after 24 hrs by MTT assay

Estrogen receptor = target: T1, Estrogen receptor (Homo sapiens, UniProt P03372); assay: Binding affinity to human recombinant ERalpha by competitive fluorometric binding assay
T1 sequence (P03372 whole entry): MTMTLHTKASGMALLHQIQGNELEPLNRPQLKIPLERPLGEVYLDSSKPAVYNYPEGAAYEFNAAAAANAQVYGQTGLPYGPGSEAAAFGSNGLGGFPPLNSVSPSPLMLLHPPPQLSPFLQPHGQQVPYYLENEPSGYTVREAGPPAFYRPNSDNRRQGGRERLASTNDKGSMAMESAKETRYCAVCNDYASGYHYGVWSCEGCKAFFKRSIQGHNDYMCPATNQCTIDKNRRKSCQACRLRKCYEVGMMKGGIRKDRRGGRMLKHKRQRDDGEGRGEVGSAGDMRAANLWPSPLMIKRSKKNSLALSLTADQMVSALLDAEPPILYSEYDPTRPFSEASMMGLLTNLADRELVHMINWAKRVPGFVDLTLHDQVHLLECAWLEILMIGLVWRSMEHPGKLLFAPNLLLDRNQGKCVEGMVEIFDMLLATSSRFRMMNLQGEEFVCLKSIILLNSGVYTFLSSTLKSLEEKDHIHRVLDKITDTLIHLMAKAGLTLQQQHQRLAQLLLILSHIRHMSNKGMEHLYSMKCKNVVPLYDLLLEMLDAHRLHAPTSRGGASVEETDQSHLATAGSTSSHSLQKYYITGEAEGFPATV

Chorioallantoic membrane = assay: Anti-angiogenesis activity in chicken embryo chorioallantonic membrane measured after 2 hrs by CAM assay; format: functional; conditions: Gallus gallus
HEK293 = assay: Cytotoxicity against human HEK293 cells assessed as cell viability after 24 hrs by MTT assay; format: functional, cell-based; conditions: HEK293, 24 h
[1] = Selectivity index, ratio of IC50 for human recombinant ERbeta to human recombinant ERalpha

Sequence of Estrogen receptor beta (Q92731 whole entry): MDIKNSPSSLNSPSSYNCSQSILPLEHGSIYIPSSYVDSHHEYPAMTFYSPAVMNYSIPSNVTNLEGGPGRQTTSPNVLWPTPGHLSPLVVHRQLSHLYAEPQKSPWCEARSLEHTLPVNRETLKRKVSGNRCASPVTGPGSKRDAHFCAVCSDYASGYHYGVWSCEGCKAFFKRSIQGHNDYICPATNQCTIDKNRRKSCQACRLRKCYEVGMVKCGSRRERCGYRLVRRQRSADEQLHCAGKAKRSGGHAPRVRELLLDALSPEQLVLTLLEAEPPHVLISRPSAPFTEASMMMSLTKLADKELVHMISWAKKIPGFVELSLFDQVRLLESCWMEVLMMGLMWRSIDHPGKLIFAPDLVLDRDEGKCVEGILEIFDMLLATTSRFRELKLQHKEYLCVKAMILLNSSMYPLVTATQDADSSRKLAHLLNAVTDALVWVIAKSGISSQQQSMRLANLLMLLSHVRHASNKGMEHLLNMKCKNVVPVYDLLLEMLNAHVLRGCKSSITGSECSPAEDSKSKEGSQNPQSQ

Structure (SMILES)	IC50 (Estrogen receptor beta) [µM]	IC50 (MDA-MB-231) [µM]	IC50 (MCF7) [µM]	IC50 (Estrogen receptor) [µM]	IC50 (Chorioallantoic membrane) [µM]	IC50 (HEK293) [µM]	Ratio IC50 [1]
CN1C(=O)NC(c2ccc(OCCN3CCN(CC(F)(F)F)CC3)cc2)C2=C1c1ccccc1C2=O (stereo not given)	> 10	> 50	6.25	1.29	–	–	–
CN1CCN(CCOc2ccc(C3NC(=O)N(C)C4=C3C(=O)c3ccccc34)cc2)CC1 (stereo not given)	> 10	> 50	14.4	0.49	–	–	–
CN(C)CCN1C(=O)N(C)C2=C(C(=O)c3ccccc32)C1c1ccc(C(F)(F)F)cc1 (stereo not given)	> 10	> 50	13.2	2.09	–	–	–
CN1C(=O)NC(c2ccc(C(F)(F)F)cc2)C2=C1c1ccccc1C2=O (stereo not given)	> 10	–	–	29.6	–	–	–
CN1C(=O)N(CC(F)(F)F)C(c2ccc(OCCN3CCN(CC(F)(F)F)CC3)cc2)C2=C1c1ccccc1C2=O (stereo not given)	> 10	> 50	5.17	0.93	6.94	–	–
CC/C(=C(\c1ccccc1)c1ccc(OCCN(C)C)cc1)c1ccccc1 [TAMOXIFEN]	–	14.9	8.53	–	–	26.3	0.054
CN(CCOc1ccc(C2NC(=O)N(C)C3=C2C(=O)c2ccccc23)cc1)CCC(Oc1ccc(C(F)(F)F)cc1)c1ccccc1 (stereo not given)	> 10	> 50	11.2	0.81	–	–	–
CN1C(=O)N(CCN(CCO)CCO)C(c2ccc(C(F)(F)F)cc2)C2=C1c1ccccc1C2=O (stereo not given)	0.31	> 50	0.081	0.004	0.86	> 50	–
CN1C(=O)NC(c2ccc(OCCN3CCNCC3)cc2)C2=C1c1ccccc1C2=O (stereo not given)	> 10	> 50	1.02	0.44	6.7	37.5	–
CN1CCN(CCN2C(=O)N(C)C3=C(C(=O)c4ccccc43)C2c2ccc(C(F)(F)F)cc2)CC1 (stereo not given)	> 10	> 50	1.48	0.072	–	38.5	–
CN1C(=O)N(N(C)CCC(Oc2ccc(C(F)(F)F)cc2)c2ccccc2)C(c2ccc(C(F)(F)F)cc2)C2=C1c1ccccc1C2=O (stereo not given)	> 10	> 50	6.98	1.33	–	–	–
CN1C(=O)N(CCN2CCNCC2)C(c2ccc(C(F)(F)F)cc2)C2=C1c1ccccc1C2=O (stereo not given)	> 10	> 50	0.89	0.021	19.1	44.3	–
CN(C)CCOc1ccc(C2NC(=O)N(C)C3=C2C(=O)c2ccccc23)cc1 (stereo not given)	> 10	21.1	11.3	3.17	–	–	–
CN(C)CCOc1ccc(C2C3=C(c4ccccc4C3=O)N(C)C(=O)N2CC(F)(F)F)cc1 (stereo not given)	> 10	31.6	14.3	7.55	–	–	–
CN1C(=O)NC(c2ccc(O)cc2)C2=C1c1ccccc1C2=O (stereo not given)	> 10	–	–	36.1	–	–	–
CN1C(=O)NC(c2ccc(OCCN(CCO)CCO)cc2)C2=C1c1ccccc1C2=O (stereo not given)	0.53	> 50	0.07	0.0071	3.52	> 50	–
CN1CCN(CCOc2ccc(C3C4=C(c5ccccc5C4=O)N(C)C(=O)N3CC(F)(F)F)cc2)CC1 (stereo not given)	> 10	28.4	16.1	3.01	–	–	–
CN(Cc1cnc2nc(N)nc(N)c2n1)c1ccc(C(=O)N[C@@H](CCC(=O)O)C(=O)O)cc1 [METHOTREXATE]	–	–	–	–	3.65	–	–

Source: ChEMBL document CHEMBL5120785, “Rational design, synthesis, antiproliferative activity against MCF-7, MDA-MB-231 cells, estrogen receptors binding affinity, and computational study of indenopyrimidine-2,5-dione analogs for the treatment of breast cancer” (Bioorg Med Chem Lett, 2022)
